Measurements reported in patent publication EP1680415B1, “PYRROLIDINYL UREA DERIVATIVES AS ANGIOGENESIS INHIBITORS” (ABBOTT LABORATORIES, priority 2003, dated 2005).

Test system: HMVEC
Assay: human microvascular endothelial (HMVEC) migration assay
Format: cell-based
Conditions: Inhibition of HMVEC migration, activators 15 ng/mL bFGF/VEGF, 4 hours at 37 °C, compared to a positive control; for inhibition at 0.0001 µM / inhibition at 10 pM / inhibition at 0.001 µM: Homo sapiens; for inhibition at 0.0001 µM: 0.1 nM; for inhibition at 10 pM: 0.01 nM
Experimental: The human microvascular endothelial (HMVEC) migration assay was run according to the procedure of S. S. Tolsma, O. V. Volpert, D. J. Good, W. F. Frazier, P. J. Polverini and N. Bouck, J. Cell Biol. 122, 497-511 (1993).
The HMVEC migration assay was carried out using Human Microvascular Endothelial Cells-Dermal (single donor) and Human Microvascular Endothelial Cells, (neonatal). The BCE or HMVEC cells were starved overnight in DME containing 0.01% bovine serum albumin (BSA). Cells were then harvested with trypsin and resuspended in DME with 0.01 % BSA at a concentration of 1.5 X 10^6 cells per mL. Cells were added to the bottom of a 48 well modified Boyden chamber (Nucleopore Corporation, Cabin John, MD). The chamber was assembled and inverted, and cells were allowed to attach for 2 hours at 37 °C to polycarbonate chemotaxis membranes (5 µm pore size) that had been soaked in 0.01 % gelatin overnight and dried. The chamber was then reinverted, and test substances (total volume of 50 µL), including activators, 15 ng/mL bFGF/VEGF, were added to the wells of the upper chamber. The apparatus was incubated for 4 hours at 37 °C. Membranes were recovered, fixed and stained (Diff Quick, Fisher Scientific) and the number of cells that had migrated to the upper chamber per 3 high power fields counted. Background migration to DME + […] was subtracted and the data reported as the number of cells migrated per 10 high power fields (400X) or, when results from multiple experiments were combined, as the percent inhibition of migration compared to a positive control.

Compound | inhibition at 0.0001 µM | also measured
CCC(C)N1CCN(C(=O)N[C@@H]2CCN(C(=O)c3ccc(C)nc3)C2)CC1 (stereo partly drawn) [Example 76, 4-sec-butyl-N-{(3R)-1-[(6-methylpyridin-3-yl)carbonyl]pyrrolidin-3-yl}piperazine-1-carboxamide] | 58% | 
Cc1ccc(C(=O)N2CC[C@@H](NC(=O)NCCc3c[nH]cn3)C2)cn1 [Example 4, N-[2-(1H-imidazol-4-yl)ethyl]-N'-{(3R)-1-[(6-methyl-3-pyridinyl)carbonyl]-3-pyrrolidinyl}urea] | 69% | 
Cc1ccc(C(=O)N2CC[C@@H](NC(=O)N3CCC(Cc4ccccc4)CC3)C2)c(Cl)n1 [Example 46, 4-benzyl-N-{(3R)-1-[(2-chloro-6-methylpyridin-3-yl)carbonyl]pyrrolidin-3-yl}piperidine-1-carboxamide] | 99% | 
COCC(C)NC(=O)N[C@@H]1CCN(C(=O)c2ccc(C)nc2)C1 (stereo partly drawn) [Example 12, N-(2-methoxy-1-methylethyl)-N'-{(3R)-1-[(6-methyl-3-pyridinyl)carbonyl]-3-pyrrolidinyl}urea] | 77% | 
Cc1ccc(C(=O)N2CC[C@@H](NC(=O)N3CCN(c4ccccn4)CC3)C2)cn1 [Example 90, N-{(3R)-1-[(6-methylpyridin-3-yl)carbonyl]pyrrolidin-3-yl}-4-pyridin-2-ylpiperazine-1-carboxamide] |  | inhibition at 10 pM: 52%
Cc1ccc(C(=O)N2CC[C@@H](NC(=O)N3CCC(O)CC3)C2)cn1 [Example 85, 4-hydroxy-N-{(3R)-1-[(6-methylpyridin-3-yl)carbonyl]pyrrolidin-3-yl}piperidine-1-carboxamide] | 55% | 
C#CCN(C)C(=O)N[C@@H]1CCN(C(=O)c2ccc(C)nc2)C1 [Example 62, N-methyl-N'-{(3R)-1-[(6-methylpyridin-3-yl)carbonyl]pyrrolidin-3-yl}-N-prop-2-ynylurea] | 54% | 
Cc1ccc(C(=O)N2CC[C@@H](NC(=O)N(C)CCc3ccccn3)C2)cn1 [Example 84, N-methyl-N'-{(3R)-1-[(6-methylpyridin-3-yl)carbonyl]pyrrolidin-3-yl}-N-(2-pyridin-2-ylethyl)urea] | 62% | 
Cc1ccc(C(=O)N2CC[C@@H](NC(=O)NCC(C)(C)C)C2)cn1 [Example 9, N-{(3R)-1-[(6-methyl-3-pyridinyl)carbonyl]-3-pyrrolidinyl}-N'-neopentylurea] | 71% | 
Cc1ccc(C(=O)N2CC[C@@H](NC(=O)N(C)CC(C)C)C2)cn1 [Example 60, N-isobutyl-N-methyl-N'-{(3R)-1-[(6-methylpyridin-3-yl)carbonyl]pyrrolidin-3-yl}urea] | 67% | 
Cc1ccc(C(=O)N2CC[C@@H](NC(=O)NCCC(c3ccccc3)c3ccccc3)C2)cn1 [Example 31, N-(3,3-diphenylpropyl)-N'-{(3R)-1-[(6-methyl-3-pyridinyl)carbonyl]-3-pyrrolidinyl}urea] | 79% | 
CCC1CCCCN1C(=O)N[C@@H]1CCN(C(=O)c2ccc(C)nc2)C1 (stereo partly drawn) [Example 68, 2-ethyl-N-{(3R)-1-[(6-methylpyridin-3-yl)carbonyl]pyrrolidin-3-yl}piperidine-1-carboxamide] |  | inhibition at 0.001 µM (1 nM): 46%
Cc1ccc(C(=O)N2CC[C@@H](NC(=O)N(C)CCc3ccccc3)C2)cn1 [Example 75, N-methyl-N'-{(3R)-1-[(6-methylpyridin-3-yl)carbonyl]pyrrolidin-3-yl}-N-(2-phenylethyl)urea] |  | inhibition at 0.001 µM (1 nM): 76%
CCCN(CCOC)C(=O)N[C@@H]1CCN(C(=O)c2ccc(C)nc2)C1 [Example 72, N-(2-methoxyethyl)-N'-{(3R)-1-[(6-methylpyridin-3-yl)carbonyl]pyrrolidin-3-yl}-N-propylurea] | 89% | 
Cc1ccc(C(=O)N2CC[C@@H](NC(=O)NCC3CC3)C2)cn1 [Example 17, N-(cyclopropylmethyl)-N'-{(3R)-1-[(6-methyl-3-pyridinyl)carbonyl]-3-pyrrolidinyl}urea] | 76% | 
CCN(CC)C(=O)C1CCCN(C(=O)N[C@@H]2CCN(C(=O)c3ccc(C)nc3)C2)C1 (stereo partly drawn) [Example 55, N^3,N^3-diethyl-N^1-{(3R)-1-[(6-methylpyridin-3-yl)carbonyl]pyrrolidin-3-yl}piperidine-1,3-dicarboxamide] |  | inhibition at 0.001 µM (1 nM): 93%

Compound | inhibition at 0.0001 µM | also measured
Cc1ccc(C(=O)N2CC[C@@H](NC(=O)N3CCN(c4ccc(F)cc4)CC3)C2)cn1 [Example 92, 4-(4-fluorophenyl)-N-{(3R)-1-[(6-methylpyidin-3-yl)carbonyl]pyrrolidin-3-yl}piperazine-1-carboxamide] |  | inhibition at 10 pM: 67%
Cc1ccc(C(=O)N2CC[C@@H](NC(=O)N(Cc3ccccc3)C(C)C)C2)cn1 [Example 51, N-benzyl-N-isopropyl-N'-{(3R)-1-[(6-methylpyridin-3-yl)carbonyl]pyrrolidin-3-yl}urea] |  | inhibition at 0.001 µM (1 nM): 60%
CCCN(C)C(=O)N[C@@H]1CCN(C(=O)c2ccc(C)nc2)C1 [Example 59, N-methyl-N'-{(3R)-1-[(6-methylpyridin-3-yl)carbonyl]pyrrolidin-3-yl}-N-propylurea] | 93% | 
Cc1ccc(C(=O)N2CC[C@@H](NC(=O)N3CCN(c4ccccc4)CC3)C2)c(Cl)n1 [Example 48, N-{(3R)-1-[(2-chloro-6-methylpyridin-3-yl)carbonyl]pyrrolidin-3-yl}-4-phenylpiperazine-1-carboxamide] |  | inhibition at 0.001 µM (1 nM): 78%
Cc1ccc(C(=O)N2CC[C@@H](NC(=O)N3CCN(c4ccc([N+](=O)[O-])cc4)CC3)C2)cn1 [Example 96, N-{(3R)-1-[(6-methylpyridin-3-yl)carbonyl]pyrrolidin-3-yl}-4-(4-nitrophenyl)piperazine-1-carboxamide] | 75% | 
Cc1ccc(C(=O)N2CC[C@@H](NC(=O)N3CCN(c4ccccc4)CC3)C2)cn1 [Example 89, N-{(3R)-1-[(6-methylpyridin-3-yl)carbonyl]pyrrolidin-3-yl}-4-phenylpiperazine-1-carboxamide] | 62% | 
CCN(CC)CCN(C)C(=O)N[C@@H]1CCN(C(=O)c2ccc(C)nc2)C1 [Example 49, N-[2-(diethylamino)ethyl]-N-methyl-N'-{(3R)-1-[(6-methylpyridin-3-yl)carbonyl]pyrrolidin-3-yl}urea] | 65% | 
Cc1ccc(C(=O)N2CC[C@@H](NC(=O)N3CCN(CCc4cccs4)CC3)C2)cn1 [Example 79, N-{(3R)-1-[(6-methylpyridin-3-yl)carbonyl]pyrrolidin-3-yl}-4-(2-thien-2-ylethyl)piperazine-1-carboxamide] | 48% | 
Cc1ccc(C(=O)N2CC[C@@H](NC(=O)N(C)CCc3ccccc3)C2)c(Cl)n1 [Example 44, N'-{(3R)-1-[(2-chloro-6-methylpyridin-3-yl)carbonyl]pyrrolidin-3-yl}-N-methyl-N-(2-phenylethyl)urea] | 80% | 
CCCN(C(=O)N[C@@H]1CCN(C(=O)c2ccc(C)nc2)C1)C(C)C [Example 64, N-isopropyl-N'-{(3R)-1-[(6-methylpyridin-3-yl)carbonyl]pyrrolidin-3-yl}-N-propylurea] | 70% | 
Cc1ccc(C(=O)N2CC[C@@H](NC(=O)N3CCN(C4CCCCC4)CC3)C2)cn1 [Example 78, 4-cyclohexyl-N-{(3R)-1-[(6-methylpyridin-3-yl)carbonyl]pyrrolidin-3-yl}piperazine-1-carboxamide] | 67% | 
COc1ccccc1N1CCN(C(=O)N[C@@H]2CCN(C(=O)c3ccc(C)nc3)C2)CC1 [Example 93, 4-(2-methoxyphenyl)-N-{(3R)-1-[(6-methylpyridin-3-yl)carbonyl]pyrrolidin-3-yl}piperazine-1-carboxamide] | 72% | 
Cc1ccc(C(=O)N2CC[C@@H](NC(=O)N[C@H](CO)c3ccccc3)C2)cn1 [Example 25, N-[(1S)-2-hydroxy-1-phenylethyl]-N'-{(3R)-1-[(6-methyl-3-pyridinyl)carbonyl]-3-pyrrolidinyl}urea] | 80% | 
Cc1ccc(C(=O)N2CC[C@@H](NC(=O)N(Cc3ccccc3)Cc3ccccc3)C2)cn1 [Example 53, N,N-dibenzyl-N'-{(3R)-1-[(6-methylpyridin-3-yl)carbonyl]pyrrolidin-3-yl} urea] | 78% | 
N-{(3R)-1-[(2-chloro-6-methylpyridin-3-yl)carbonyl]pyrrolidin-3-yl}-1,3,3-trimethyl-6-azabicyclo[3.2.1]octane-6-carboxamide [Example 36] |  | % Inhibition @ 1 nM (1 nM): 64%
Cc1ccc(C(=O)N2CC[C@@H](NC(=O)NC3CCCCCC3)C2)cn1 [Example 22, N-cycloheptyl-N'-{(3R)-1-[(6-methyl-3-pyridinyl)carbonyl]-3-pyrrolidinyl}urea] | 70% | 
